The values below come from ChEMBL document CHEMBL1681644, “Scaffold oriented synthesis. Part 3: design, synthesis and biological evaluation of novel 5-substituted indazoles as potent and selective kinase inhibitors employing [2+3] cycloadditions” (Bioorg Med Chem Lett, 2011).

By Ki is commonly meant a dissociation constant, usually derived from enzyme kinetics or from competition with a known ligand. Higher therefore signals lower affinity.

Test [1] addresses Serine/threonine-protein kinase PAK 4 (Homo sapiens, UniProt O96013). The test is described as follows: Inhibition of Pak4 after 1 hr using biotinylated L15 peptide as substrate.
Test [2] concerns the target Vascular endothelial growth factor receptor 2 (Homo sapiens, UniProt P35968). The test can be described thus: Inhibition of KDR after 1 hr.
Test [3] deals with Serine/threonine-protein kinase pim-1 (Homo sapiens, UniProt P11309). The test can be described thus: Inhibition of Pim1 after 1 hr using biotinylated AL1peptide as substrate.
The target in test [4] is Glycogen synthase kinase-3 beta (Homo sapiens, UniProt P49841).
Description: Inhibition of GSK3-beta after 1 hr
Test [5] deals with Rho-associated protein kinase 2 (Homo sapiens, UniProt O75116). The test is described as follows: Inhibition of Rock2 after 1 hr using biotinylated longS peptide as substrate.
Test [6] deals with Tyrosine-protein kinase JAK2 (Homo sapiens, UniProt O60674). The test can be described thus: Inhibition of JAK2 after 1 hr using biotinylated PDKtide as substrate.
Test [7] deals with Epidermal growth factor receptor (Homo sapiens, UniProt P00533).
Epidermal growth factor receptor, sequence (P00533 whole entry): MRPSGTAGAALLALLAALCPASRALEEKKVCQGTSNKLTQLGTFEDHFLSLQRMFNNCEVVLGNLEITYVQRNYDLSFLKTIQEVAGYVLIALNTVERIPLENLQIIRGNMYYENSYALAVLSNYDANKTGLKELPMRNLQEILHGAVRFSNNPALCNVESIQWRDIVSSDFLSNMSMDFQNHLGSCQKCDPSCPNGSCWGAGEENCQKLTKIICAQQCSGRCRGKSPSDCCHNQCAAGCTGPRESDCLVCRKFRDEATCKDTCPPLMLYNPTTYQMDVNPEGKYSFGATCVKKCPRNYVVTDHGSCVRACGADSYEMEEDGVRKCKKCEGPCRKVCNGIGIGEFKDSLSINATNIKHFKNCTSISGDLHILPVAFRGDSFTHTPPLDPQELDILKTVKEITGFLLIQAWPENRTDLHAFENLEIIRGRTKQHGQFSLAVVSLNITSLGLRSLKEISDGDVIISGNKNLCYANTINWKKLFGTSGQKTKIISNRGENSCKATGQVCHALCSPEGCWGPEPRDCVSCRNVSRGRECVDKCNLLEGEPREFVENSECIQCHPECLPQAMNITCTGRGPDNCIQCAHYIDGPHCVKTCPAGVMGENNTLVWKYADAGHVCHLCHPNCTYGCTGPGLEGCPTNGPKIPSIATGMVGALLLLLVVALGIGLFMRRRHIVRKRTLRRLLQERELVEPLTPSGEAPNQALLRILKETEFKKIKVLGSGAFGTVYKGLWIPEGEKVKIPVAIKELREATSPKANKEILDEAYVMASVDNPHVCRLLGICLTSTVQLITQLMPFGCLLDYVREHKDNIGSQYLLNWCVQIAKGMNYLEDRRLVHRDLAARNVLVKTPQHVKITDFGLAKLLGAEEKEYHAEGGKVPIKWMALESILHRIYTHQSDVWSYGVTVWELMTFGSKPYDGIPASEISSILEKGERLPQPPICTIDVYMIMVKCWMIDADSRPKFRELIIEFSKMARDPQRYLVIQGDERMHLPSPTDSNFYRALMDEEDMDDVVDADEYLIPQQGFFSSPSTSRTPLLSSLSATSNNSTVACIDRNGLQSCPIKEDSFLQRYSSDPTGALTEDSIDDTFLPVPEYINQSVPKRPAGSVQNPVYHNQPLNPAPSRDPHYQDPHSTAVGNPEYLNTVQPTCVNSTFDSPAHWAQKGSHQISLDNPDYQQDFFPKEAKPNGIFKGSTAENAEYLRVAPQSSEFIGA
Description: Inhibition of EGFR after 1 hr

Vascular endothelial growth factor receptor 2, sequence (P35968 whole entry): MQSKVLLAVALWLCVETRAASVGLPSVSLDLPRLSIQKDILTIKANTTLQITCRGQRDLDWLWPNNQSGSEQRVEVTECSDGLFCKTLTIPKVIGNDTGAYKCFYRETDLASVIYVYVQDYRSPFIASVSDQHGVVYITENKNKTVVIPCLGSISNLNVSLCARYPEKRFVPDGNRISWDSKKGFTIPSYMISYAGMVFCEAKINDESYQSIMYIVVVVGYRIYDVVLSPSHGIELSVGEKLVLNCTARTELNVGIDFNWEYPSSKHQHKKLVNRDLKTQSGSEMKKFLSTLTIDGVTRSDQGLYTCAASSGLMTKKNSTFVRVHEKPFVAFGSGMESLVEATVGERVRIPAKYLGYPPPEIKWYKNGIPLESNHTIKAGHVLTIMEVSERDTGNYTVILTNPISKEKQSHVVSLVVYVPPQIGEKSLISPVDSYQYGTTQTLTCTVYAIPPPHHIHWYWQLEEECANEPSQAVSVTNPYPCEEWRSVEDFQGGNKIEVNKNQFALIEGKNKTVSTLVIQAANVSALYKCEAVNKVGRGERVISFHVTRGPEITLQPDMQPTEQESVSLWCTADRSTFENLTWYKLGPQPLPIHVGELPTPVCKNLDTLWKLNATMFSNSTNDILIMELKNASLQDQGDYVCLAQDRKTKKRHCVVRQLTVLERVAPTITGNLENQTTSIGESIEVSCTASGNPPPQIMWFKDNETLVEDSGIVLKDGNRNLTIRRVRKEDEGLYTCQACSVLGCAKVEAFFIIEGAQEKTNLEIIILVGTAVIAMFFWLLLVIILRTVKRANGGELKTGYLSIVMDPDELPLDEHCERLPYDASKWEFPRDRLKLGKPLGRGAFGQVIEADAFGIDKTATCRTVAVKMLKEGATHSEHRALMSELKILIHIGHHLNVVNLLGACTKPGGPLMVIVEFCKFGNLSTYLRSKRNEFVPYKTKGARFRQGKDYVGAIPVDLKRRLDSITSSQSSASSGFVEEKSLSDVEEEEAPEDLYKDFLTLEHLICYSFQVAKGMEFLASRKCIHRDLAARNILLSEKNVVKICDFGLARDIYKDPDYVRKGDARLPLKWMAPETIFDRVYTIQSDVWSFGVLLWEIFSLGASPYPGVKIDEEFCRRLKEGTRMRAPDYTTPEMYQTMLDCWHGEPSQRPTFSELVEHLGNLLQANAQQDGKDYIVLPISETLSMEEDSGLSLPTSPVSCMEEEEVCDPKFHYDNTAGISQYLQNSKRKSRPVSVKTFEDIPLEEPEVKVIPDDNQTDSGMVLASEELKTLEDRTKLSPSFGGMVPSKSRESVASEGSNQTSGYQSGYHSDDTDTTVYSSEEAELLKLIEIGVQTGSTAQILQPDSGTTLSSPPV
Rho-associated protein kinase 2, sequence (O75116 whole entry): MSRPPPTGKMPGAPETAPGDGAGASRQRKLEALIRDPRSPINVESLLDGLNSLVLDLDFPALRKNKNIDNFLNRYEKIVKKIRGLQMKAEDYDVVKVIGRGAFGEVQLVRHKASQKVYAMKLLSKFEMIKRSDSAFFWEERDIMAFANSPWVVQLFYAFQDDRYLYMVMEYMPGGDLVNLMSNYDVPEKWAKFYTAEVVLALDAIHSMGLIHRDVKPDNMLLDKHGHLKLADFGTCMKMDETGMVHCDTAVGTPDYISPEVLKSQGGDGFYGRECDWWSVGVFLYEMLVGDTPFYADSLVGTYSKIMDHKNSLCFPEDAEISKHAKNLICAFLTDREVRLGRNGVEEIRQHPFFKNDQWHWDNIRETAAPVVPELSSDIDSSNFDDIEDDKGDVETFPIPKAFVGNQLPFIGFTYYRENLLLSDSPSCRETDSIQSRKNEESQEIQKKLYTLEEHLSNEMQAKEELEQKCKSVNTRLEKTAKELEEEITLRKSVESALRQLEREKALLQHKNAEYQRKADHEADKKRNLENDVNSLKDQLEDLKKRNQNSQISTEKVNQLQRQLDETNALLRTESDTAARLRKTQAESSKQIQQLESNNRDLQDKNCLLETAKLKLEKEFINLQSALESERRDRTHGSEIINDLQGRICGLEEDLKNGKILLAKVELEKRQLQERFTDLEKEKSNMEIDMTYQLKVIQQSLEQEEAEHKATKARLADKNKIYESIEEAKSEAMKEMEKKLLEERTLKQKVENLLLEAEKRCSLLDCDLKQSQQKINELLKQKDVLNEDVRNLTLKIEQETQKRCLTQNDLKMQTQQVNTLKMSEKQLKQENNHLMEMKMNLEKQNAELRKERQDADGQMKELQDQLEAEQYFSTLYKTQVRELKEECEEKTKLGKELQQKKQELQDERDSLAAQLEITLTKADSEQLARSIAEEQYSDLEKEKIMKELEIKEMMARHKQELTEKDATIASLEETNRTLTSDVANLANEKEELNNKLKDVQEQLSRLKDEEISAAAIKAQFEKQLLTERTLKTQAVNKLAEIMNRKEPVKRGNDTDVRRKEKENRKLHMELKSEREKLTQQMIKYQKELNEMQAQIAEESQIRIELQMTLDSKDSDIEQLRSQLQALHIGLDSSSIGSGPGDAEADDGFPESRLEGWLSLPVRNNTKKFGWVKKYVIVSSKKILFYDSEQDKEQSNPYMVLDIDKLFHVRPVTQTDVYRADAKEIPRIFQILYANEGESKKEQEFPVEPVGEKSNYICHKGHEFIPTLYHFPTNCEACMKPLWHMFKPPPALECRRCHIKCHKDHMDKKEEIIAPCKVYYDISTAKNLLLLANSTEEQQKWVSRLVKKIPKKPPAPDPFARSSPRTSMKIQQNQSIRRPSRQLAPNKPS
Serine/threonine-protein kinase PAK 4, sequence (O96013 whole entry): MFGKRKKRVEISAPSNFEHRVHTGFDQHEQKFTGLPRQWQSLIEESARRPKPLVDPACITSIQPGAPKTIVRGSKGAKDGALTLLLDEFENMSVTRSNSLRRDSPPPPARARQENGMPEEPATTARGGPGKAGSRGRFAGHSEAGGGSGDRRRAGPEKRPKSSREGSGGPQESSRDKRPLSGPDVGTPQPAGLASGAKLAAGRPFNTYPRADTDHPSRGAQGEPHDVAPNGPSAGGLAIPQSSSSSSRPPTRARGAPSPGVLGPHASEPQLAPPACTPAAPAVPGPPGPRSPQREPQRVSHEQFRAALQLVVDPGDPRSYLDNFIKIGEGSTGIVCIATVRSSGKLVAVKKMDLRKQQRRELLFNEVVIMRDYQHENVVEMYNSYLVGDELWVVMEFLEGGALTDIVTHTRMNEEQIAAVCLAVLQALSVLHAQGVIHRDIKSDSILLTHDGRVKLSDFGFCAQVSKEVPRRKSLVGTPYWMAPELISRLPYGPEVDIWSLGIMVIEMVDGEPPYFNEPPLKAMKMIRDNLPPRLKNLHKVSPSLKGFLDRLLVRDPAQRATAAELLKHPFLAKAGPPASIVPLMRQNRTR
Serine/threonine-protein kinase pim-1, sequence (P11309 whole entry): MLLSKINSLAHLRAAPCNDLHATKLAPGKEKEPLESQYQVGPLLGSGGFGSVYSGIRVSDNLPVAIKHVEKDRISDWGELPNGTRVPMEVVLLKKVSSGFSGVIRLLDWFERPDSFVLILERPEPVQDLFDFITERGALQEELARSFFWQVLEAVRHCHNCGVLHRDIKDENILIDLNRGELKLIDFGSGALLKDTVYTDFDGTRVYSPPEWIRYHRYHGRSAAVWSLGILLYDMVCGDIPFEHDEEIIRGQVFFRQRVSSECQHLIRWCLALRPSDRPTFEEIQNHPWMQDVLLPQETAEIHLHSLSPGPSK

Turning to `CNC(=O)c1cc(-c2ccc3[nH]ncc3c2)on1`, the Ki was above 3750 nM in test [1]; above 8880 nM in test [2]; 3680 nM in test [3]; 4270 nM in test [4]; 402 nM in test [5].

For the molecule `CCCc1cn(-c2ccc3[nH]ncc3c2)nn1`, the Ki is 756 nM in test [6]; above 1800 nM in test [7]; above 3750 nM in test [1]; above 8880 nM in test [2]; 8360 nM in test [3]; 2030 nM in test [4]. The Ki in test [5] was 108 nM.

Regarding `COCc1cn(-c2ccc3[nH]ncc3c2)nn1`, the Ki is above 1450 nM in test [6]; above 1800 nM in test [7]; above 3750 nM in test [1]; above 8880 nM in test [2]; above 8570 nM in test [3]; above 5450 nM in test [4]. Besides, the Ki in test [5] was 635 nM.

Regarding `OCCCc1cn(-c2ccc3[nH]ncc3c2)nn1`, the inhibition constant (Ki) is 1450 nM in test [6]; above 1800 nM in test [7]; above 3750 nM in test [1]; above 8880 nM in test [2]; above 8570 nM in test [3]; 5220 nM in test [4]. Further, the inhibitory constant (Ki) in test [5] was 230 nM.

For `c1cc2[nH]ncc2cc1-n1cc(C2CC2)nn1`, the Ki in test [6] is 1450 nM; in test [7], above 1800 nM; in test [1], above 3750 nM; in test [2], above 8880 nM; in test [3], above 8570 nM; in test [4] it was 3470 nM. Moreover, the inhibition constant Ki in test [5] was found to be 356 nM.

As for `c1cc2[nH]ncc2cc1-n1cc(C2CCCC2)nn1`, the Ki in test [6] was 791 nM; in test [7] it was above 1800 nM; in test [1], above 3750 nM; in test [2], above 8880 nM; in test [3] it was above 8570 nM; in test [4], 1300 nM. Affinity in test [5] was put at a Ki of 44 nM.

Take `c1cc2[nH]ncc2cc1-n1cc(CC2CCCCC2)nn1`: the inhibition constant Ki in test [6] is 281 nM; in test [7], above 1800 nM; in test [1] it was above 3750 nM; in test [2] it was above 8880 nM; in test [3], above 8570 nM; in test [4], 891 nM. In test [5], this molecule came in with a Ki of 100 nM.

Take `c1ccc(Cc2cn(-c3ccc4[nH]ncc4c3)nn2)cc1`: the inhibition constant (Ki) in test [4] was determined as 542 nM.

Take `c1ccc(CCc2cn(-c3ccc4[nH]ncc4c3)nn2)cc1`: the inhibitory constant (Ki) in test [6] was 898 nM; in test [7] it was above 1800 nM; in test [1], above 3750 nM; in test [2] it was above 8880 nM; in test [3], above 8570 nM; in test [4], 446 nM. Affinity in test [5] was put at a Ki of 19 nM.

On to `c1ccc(CCCc2cn(-c3ccc4[nH]ncc4c3)nn2)cc1`, for which the Ki was 644 nM in test [6]; above 1800 nM in test [7]; above 3750 nM in test [1]; above 8880 nM in test [2]; above 8570 nM in test [3]; 528 nM in test [4]. This molecule returned a Ki in test [5] of 62 nM.

As for `c1cc2n[nH]cc2cc1-c1c[nH]nn1`, the Ki in test [6] worked out at 1450 nM; in test [1] it was 69900 nM; in test [2] it was 3550 nM; in test [3], 2220 nM; in test [4], 448 nM; in test [5], 209 nM.

For the molecule `Clc1ccccc1Cn1cc(-c2ccc3[nH]ncc3c2)nn1`, the Ki in test [6] is above 1450 nM; in test [3] it was 4150 nM; in test [4], 45 nM; in test [5], 97 nM.

With `Clc1cccc(Cn2cc(-c3ccc4[nH]ncc4c3)nn2)c1`, the Ki in test [6] worked out at 1450 nM; in test [2], 13100 nM; in test [4], 23 nM; in test [5], 39 nM.

Consider `Clc1ccc(Cn2cc(-c3ccc4[nH]ncc4c3)nn2)cc1`, for which the Ki in test [2] stood at 2710 nM; in test [3] it was 37800 nM; in test [4] it was 197 nM; in test [5], 68 nM.

In the case of `Fc1ccccc1Cn1cc(-c2ccc3[nH]ncc3c2)nn1`, the inhibition constant (Ki) in test [1] is 13100 nM; in test [2] it was above 915 nM; in test [3] it was 10200 nM; in test [4], 91 nM; in test [5], 285 nM.

For `Fc1cccc(Cn2cc(-c3ccc4[nH]ncc4c3)nn2)c1`, the inhibition constant (Ki) in test [3] amounted to 12000 nM; in test [4], 26 nM; in test [5], 180 nM.

For the molecule `Fc1ccc(Cn2cc(-c3ccc4[nH]ncc4c3)nn2)cc1`, the results for the Ki in test [3], in test [4] and in test [5] were 165000 nM, 70 nM and 285 nM, respectively.

As for `Cc1cccc(Cn2cc(-c3ccc4[nH]ncc4c3)nn2)c1`, the results for the Ki in test [2], in test [4] and in test [5] were above 915 nM, 70 nM and 375 nM, respectively.

In the case of `Clc1cccc(Cn2cc(-c3ccc4[nH]ncc4c3)nn2)c1Cl`, the Ki turned out to be 67600 nM in test [1], 20300 nM in test [3], 48 nM in test [4] and 15 nM in test [5].

Consider `Clc1ccc(Cl)c(Cn2cc(-c3ccc4[nH]ncc4c3)nn2)c1`, for which the inhibitory constant (Ki) in test [2] stood at 127000 nM; in test [3], 36000 nM; in test [4] it was 16 nM; in test [5], 18 nM.

As for `Clc1cc(Cl)cc(Cn2cc(-c3ccc4[nH]ncc4c3)nn2)c1`, the Ki in test [2] was above 915 nM; in test [3], 41500 nM; in test [4] it was 28 nM; in test [5], 41 nM.

Regarding `Nc1n[nH]c2ccc(-c3cc(Cc4ccccc4)no3)cc12`, the Ki in test [6] stood at 16 nM; in test [1] it was 3590 nM; in test [2], 3290 nM; in test [3], 5160 nM; in test [4] it was 450 nM; in test [5] it was 16 nM.

In turn, `CCCc1cc(-c2ccc3[nH]ncc3c2)on1` came in with a Ki in test [4] of 2530 nM.

Regarding `c1cc2[nH]ncc2cc1-c1cc(CN2CCCCC2)no1`, the inhibitory constant (Ki) in test [6] is above 1450 nM; in test [4] it was 3810 nM.
